“Also recorded” adds a separate entry of the source.
Experiments:
[1] = compared with Tpo itself; literature (Blood 85:981; J interferon Cyto Res); cited from earlier work
[2] = test system: heart; conditions: earlier work of the inventor, U.S. Pat. No. 7,879,318; cited from earlier work
[3] = test system: Male Sprague Dawley rats; experiment: left middle cerebral artery occlusion followed by reperfusion (focal stroke); format: in vivo, rat
Description: Male Sprague Dawley rats, 10 weeks of age (n=6/group) undergo 2-3 hours of left middle cerebral artery occlusion followed by 20-48 hours of reperfusion. Vehicle or thrombopoietin (0.03 to 1.00 μg/kg) is administered intravenously immediately after reperfusion. Brain infarct and swelling, neurologic deficits, matrix metalloproteinase-9 (MMP-9), tissue inhibitor of metalloproteinase-1 (TIMP-1), thrombopoietin and c-Mpl (thrombopoietin receptor) mRNA and protein, MMP-9 enzyme activity and protein expression, and the integrity of the blood-brain barrier are measured. Reperfusion of the left middle cerebral artery occlusion is expected to produce a large infarct and swelling after stroke.
Thrombopoietin is administered intravenously over the range 0.001-10 μg/kg. […] Stroke-induced increases in cortical MMP-9 mRNA, enzyme activity and protein expression, TIMP-1 mRNA, and Evans blue extravasation would be reduced by administration of thrombopoietin.

[4] = rat MCA occlusion/reperfusion, i.v. thrombopoietin

Molecule: CC1=NN(c2ccc(C)c(C)c2)C(=O)/C1=N\Nc1cccc(-c2cccc(C(=O)O)c2)c1O [eltrombopag]
- crossing of the blood brain barrier relative to Tpo [1]: cross the blood brain barrier more effectively than does Tpo itself

Molecule: romiplostim
- crossing of the blood brain barrier relative to Tpo [1]: cross the blood brain barrier more effectively than does Tpo itself

Molecule: Thrombopoietin
- protection of the heart against deleterious effects of ischemia/reperfusion [2]: protects the heart against various deleterious effects of ischemia/reperfusion
- most effective thrombopoietin dose ([3]; i.v., tested over the range 0.001-10 μg/kg, immediately or 2 hours after reperfusion): 0.05 to 1.0 µg/kg
- stroke-induced increase in Evans blue extravasation (blood-brain barrier integrity) [3, 4]: reduced
- stroke-induced increase in TIMP-1 mRNA [3, 4]: reduced
- stroke-induced increases in cortical MMP-9 mRNA, enzyme activity and protein expression [3, 4]: reduced
- neurologic deficits after stroke ([3]; rat MCA occlusion/reperfusion, i.v. immediately or 2 hours after reperfusion, vs untreated controls): ameliorate
- infarct size and swelling ([3]; rat, 2-3 h MCA occlusion, 20-48 h reperfusion, thrombopoietin i.v. immediately or 2 hours after reperfusion, vs untreated controls): significantly reduces these indices of injury to the brain in a dose-dependent manner; also recorded: significantly reduce
